Data taken from patent publication US20230293599A1, “BACTERIAL COMPOSITIONS WITH ANTI-INFLAMMATORY ACTIVITY” (Universiteit Gent, priority 2020, published 2023).
Where two headings read alike, the source gives them in different places.

Experiments:
P. aeruginosa = assay: Biolog Phenotype Microarray PM1-2 growth on carbon sources; assay type: cell-based, Pseudomonas aeruginosa
Protocol: (§1) Using Phenotype Microarray (PM) panels (Biolog), the influence of 190 carbon sources on the growth of the potential probiotic species R. mucilaginosa, R. dentocariosa, R. gilardii, G. haemolysans, and common respiratory pathogens P. aeruginosa, and S. aureus was determined. PM1 and PM2 panels (Biolog) were inoculated according to the manufacturer's instructions. Growth curves were generated for 35 hours by measuring the absorbance at 590 nm using an EnVision (Perkin Elmer) plate reader.

S. aureus = assay type: cell-based, Staphylococcus aureus
Protocol: as §1

R. mucilaginosa = assay: Biolog Phenotype Microarray PM1-2 growth on carbon sources; assay type: cell-based, Rothia mucilaginosa; conditions: for AUC of growth curve, R. mucilaginosa: 35 hours, absorbance 590 nm, n = 1, cells without values AUC < 50; for growth of R. mucilaginosa on the carbon source (in words): AUC lower than 50 = not supporting growth
Protocol: as §1

R. dentocariosa = assay: as above; assay type: cell-based, Rothia dentocariosa
Protocol: as §1

R. gilardii = assay: as above; assay type: cell-based, Roseomonas gilardii
Protocol: as §1

[1] = 35 hours, absorbance 590 nm, n = 1, cells without values AUC < 50
[2] = AUC lower than 50 = not supporting growth

SMILES	AUC of growth curve, P. aeruginosa (P. aeruginosa; [1])	AUC of growth curve, S. aureus (S. aureus)	other results
NC(=O)CC[C@H](N)C(=O)O [L-Glutamine]	987.8	697.1	
N[C@@H](Cc1c[nH]cn1)C(=O)O [L-Histidine]	773.2	467.3	
N[C@@H](CCO)C(=O)O [L-Homoserine]	82.5	194.1	
CC[C@H](C)[C@H](N)C(=O)O [L-Isoleucine]	86.2	113.8	
CC(C)C[C@H](N)C(=O)O [L-Leucine]	125.5	231.5	
CSCC[C@H](N)C(=O)O [L-Methionine]	52.6	254.7	
O=C(O)[C@@H]1CCCN1 [L-Proline]	425.7	567.9	AUC of growth curve, R. mucilaginosa (R. mucilaginosa): 268.5; AUC of growth curve, R. dentocariosa (R. dentocariosa; [1]): 1049.5
O=C1CC[C@@H](C(=O)O)N1 [L-Pyroglutamic Acid]	1438.7	427.9	
O=C(CO)[C@@H](O)[C@H](O)[C@@H](O)CO [L-Sorbose]		458.7	AUC of growth curve, R. dentocariosa (R. dentocariosa): 52.1; AUC of growth curve, P. aeruginosa (P. aeruginosa): 94.3
O=C(O)CC(=O)O [Malonic Acid]	234.7	470.9	
OC[C@H]1O[C@H](O[C@H]2[C@H](O)[C@@H](O)[C@H](O)O[C@@H]2CO)[C@H](O)[C@@H](O)[C@@H]1O [Maltose]		867.8	AUC of growth curve, R. mucilaginosa (R. mucilaginosa): 1052.6; growth of R. mucilaginosa on the carbon source (in words) (R. mucilaginosa): allowed growth; AUC of growth curve, R. dentocariosa (R. dentocariosa; [1]): 977.1; growth of R. dentocariosa on the carbon source (in words) (R. dentocariosa; [2]): allowed growth; growth of P. aeruginosa on the carbon source (in words) (P. aeruginosa; [2]): did not support growth
O=C(O)[C@@H](O)[C@H](O)[C@H](O)[C@@H](O)C(=O)O [Mucic Acid]		162.5	AUC of growth curve, R. mucilaginosa (R. mucilaginosa): 53.4
CC(=O)N[C@@H](CCC(=O)O)C(=O)O [N-Acetyl-L-Glutamic Acid]	272.5	184.1	
O=C(O)C(=O)C(C(=O)O)C(O)C(=O)O (stereo not shown) [Oxalomalic Acid]		691.0	AUC of growth curve, R. dentocariosa (R. dentocariosa): 169.4; growth of R. dentocariosa on the carbon source (in words) (R. dentocariosa): enabled growth; AUC of growth curve, R. gilardii (R. gilardii): 219.2; growth of R. gilardii on the carbon source (in words) (R. gilardii): enabled growth; growth of P. aeruginosa on the carbon source (in words) (P. aeruginosa): did not support growth
OC[C@H]1O[C@H](OC[C@H]2OC(O)(CO)[C@@H](O)[C@@H]2O)[C@H](O)[C@@H](O)[C@@H]1O (stereo partly shown) [Palatinose]	514.7	763.7	AUC of growth curve, R. mucilaginosa (R. mucilaginosa): 129.4; AUC of growth curve, R. dentocariosa (R. dentocariosa; [1]): 197.4
CCC(=O)O [Propionic Acid]	152.1	235.6	AUC of growth curve, R. gilardii (R. gilardii; [1]): 58.6
NCCCCN [Putrescine]	656.8	274.2	
OCc1ccccc1O[C@@H]1O[C@H](CO)[C@@H](O)[C@H](O)[C@H]1O [Salicin]		146.2	AUC of growth curve, R. mucilaginosa (R. mucilaginosa): 74.0; AUC of growth curve, R. dentocariosa (R. dentocariosa; [1]): 222.9; growth of R. dentocariosa on the carbon source (in words) (R. dentocariosa; [2]): stimulated only the growth; growth of P. aeruginosa on the carbon source (in words) (P. aeruginosa; [2]): did not support growth
CCC(C)N (stereo not shown) [Sec-Butylamine]			AUC of growth curve, R. mucilaginosa (R. mucilaginosa): 67.6
NC(=O)CCC(=O)O [Succinamic Acid]	53.6	490.3	
O=C(O)CCC(=O)O [Succinic Acid]	348.4	626.1	AUC of growth curve, R. dentocariosa (R. dentocariosa; [1]): 241.8; AUC of growth curve, R. gilardii (R. gilardii; [1]): 125.7
OC[C@H]1O[C@@](CO)(O[C@H]2O[C@H](CO)[C@@H](O)[C@H](O)[C@H]2O)[C@@H](O)[C@@H]1O [Sucrose]			growth of R. mucilaginosa on the carbon source (in words) (R. mucilaginosa): allowed growth; growth of R. dentocariosa on the carbon source (in words) (R. dentocariosa; [2]): allowed growth; growth of P. aeruginosa on the carbon source (in words) (P. aeruginosa; [2]): did not support growth
O=C(O)CC(CC(=O)O)C(=O)O [Tricarballylic Acid]	510.7	177.0	
COC1OC(CO)C(O)C(O)C1O [α-Methyl-D-Galactoside]		229.9	AUC of growth curve, R. gilardii (R. gilardii; [1]): 73.3
